Assay type in all cases: cell-based
The test system of series [1] is AGS cell strain. Description: Effect on cell cycle (propidium iodide staining, FACS, sub G1). The following applies: mimic 10 nM, 10 uM 5-FU 24 h after transfection, then 48 hours, relative to scrambled control (=1). The method, then:
The AGS cells were divided into a 96-well plate such that 2×10^5 AGS cells were allocated to each well, and synthesized miRNAs (10 nM) were transfected and cultured at 37° C. in an incubator. Twenty four hours after the transfection, 10 uM of 5-FU, which is an anti-cancer agent, was treated in one case or not treated in another case, and then the resulting mixture was cultured in an incubator at 37° C. for 48 hours. The cells were detached by using Trypsin-EDTA and washed with PBS two times.
Immediately after the AGS cell strains, which are EBV-negative cell strains, were divided into a 6-well plate such that 2×10^5 AGS cells were allocated to each well, a synthesized miRNA (10 nM) was transfected by using G-fectin and cultured at 37° C. in an incubator. Twenty four hours after the transfection, 10 uM of 5-FU was treated and the resulting mixture was cultured at 37° C. in an incubator for 48 hours. The cells were detached by using Trypsin-EDTA and washed with PBS two times. Afterwards, DNA was stained by propidium iodide staining and the ratio of cells where cell cycle was changed was investigated by FACS.

Series [2] has as its system AGS cell strain. Description: Cell growth test (CCK-8 assay) after transfection of BART miRNA mimics. The following applies: mimic 10 nM, 72 hours after transfection, relative to scrambled control (=1). The method, then:
An AGS cell strain (Korean Cell Line Bank), which is a stomach cancer cell strain, was cultured in an RPMI1640 (Gibco) culture medium including 10% fetal bovine serum. Mature type synthesized BART miRNAs were transfected to the AGS cell strain by using G-fectin (Genolution) according to a protocol of the manufacture.
To investigate the effect of individual EBV BART miRNAs on the AGS cell strain, the synthesized miRNAs were transfected to the AGS cell strain and, after 72 hours, cells were counted by CCK-8 assay.
Immediately after the AGS cell strain, which is an EBV-negative cell strain, was divided into 96-well plate having 1×10^3 cells/well, a synthesized miRNA (10 nM) was transfected by using G-fectin. After the transfection, according to the experimental objective, the cells were cultured at 37° C. in an incubator, and then CCK-8 was divided among the wells by allocating 10 μl of CCK-8 to each well and the resulting mixture was cultured in an incubator at 37° C. for two hours. Then, the light absorbance was measured with an ELISA measuring instrument.
By the method described in Example 3, miR-BART5-5p mimic or miR-BART15-3p mimic (10 nM) were transfected to the AGS cell strain, and the effect thereof on cell growth was investigated over time.
miR-BART5-5p, miR-BART15-3p, and miR-BART20-3p were transfected to the AGS cell strain (1×10^3 cells/well) in a concentration of 1, 3, 10, and 30 nM, and the effect on cell growth was investigated. Immediately after the AGS cell strain was divided into a 96-well plate such that 1×10^3 AGS cells were allocated to each well, a synthesized miRNA was transfected by using G-fectin. Seventy two hours after the transfection, CCK-8 was divided among the wells by allocating 10 μl of CCK-8 to each well, and the resulting mixture was cultured at 37° C. in an incubator for two hours.
In general terms: Tetrazolium dyes change colour on reduction, which living cells bring about.

The subject of series [3] is AGS cell strain. As to the kind of experiment: Measurement of apoptosis (Annexin V staining, FACS). The following applies: for Relative Apoptotic cell: AGS, mimic 10 nM, 10 uM 5-FU 24 h after transfection, then 48 hours, Annexin V, relative to scrambled control (=1), n=9; for effect on cell growth and apoptosis (summary statement): mimics transfected to AGS, tumor cell strain not infected with EBV. The method, then:
Immediately after the AGS cell strain, which is an EBV-negative cell strain, was divided was divided into a 6-well plate such that 2×10^5 AGS cells were allocated to each well, a synthesized miRNA (10 nM) was transfected by using G-fectin and the resulting mixture was cultured at 37 t in an incubatorTwenty four hours after the transfection, 10 uM of 5-FU was treated and the resulting mixture was cultured in an incubator at 37° C. for 48 hours. The cells were detached by using Trypsin-EDTA and washed with PBS two times. Afterwards, the cells were treated with a PE Annexin V Apoptosis Detection Kit and the changed ratio of apoptotic cell was investigated by FACS (FIG. 7).
Immediately after the AGS cell strain, which is an EBV-negative cell strain, is divided into a 6-well plate such that 2×10^5 AGS cells were allocated to each well, a synthesized miRNA (10 nM) was transfected by using G-fectin and the resulting mixture was cultured at 37° C. Twenty four hours after the transfection, 10 uM of 5-FU, which is an anti-cancer agent, was treated and the resulting mixture was cultured in an incubator at 37° C. for 48 hours. The cells were detached by using Trypsin-EDTA and washed with PBS two times. Afterwards, the cells were treated with a PE Annexin V Apoptosis Detection Kit and the ratio of cells where apoptosis took place was measured by FACS.

With “BART16-5p: EBV BART miRNA mimic, double stranded RNA; sense SEQ NO: 21, antisense SEQ NO: 22 (sense UUAGAUAGAGUGGGUGUGUGCUCU; antisense AGAGCACACACCCACUCUAUCUAA; chemistry not given here)”, the “Relative Sub G1” value in the series with AGS cell strain [1] is recorded as 1.182; with AGS cell strain [1] (listed as 16-5p) it was “increased”. The “Relative Cell Growth” value is 0.705 in the series on AGS cell strain [2] (n=9) and “inhibited cell growth” in the series on AGS cell strain [2] (n=9, listed as miR-BART16-5p). Further, the “Relative Apoptotic cell” value was 1.312 in the series with AGS cell strain [3] and “significantly higher” with AGS cell strain [3] (listed as 16-5p). The “effect on cell growth and apoptosis (summary statement)” value (“effect on cell growth and apoptosis” for short) in the series on AGS cell strain [3] is “inhibit cell growth and promote apoptosis”.

Take “BART9-5p: EBV BART miRNA mimic, double stranded RNA; sense SEQ NO: 49, antisense SEQ NO: 50 (sense UACUGGACCCUGAAUUGGAAAC; antisense GUUUCCAAUUCAGGGUCCAGUA; chemistry not given here)”: the “Relative Sub G1” value with AGS cell strain [1] stood at 1.005. The “Relative Cell Growth” value in the series with AGS cell strain [2] (n=9) is on record as 1.482. Moreover, in the series with AGS cell strain [3], the “Relative Apoptotic cell” value turned out to be 1.25; the “effect on cell growth and apoptosis” value is “inhibit cell growth and promote apoptosis”. Moreover, the “Relative Apoptotic cell” value with AGS cell strain [3] (listed as 9-5p) is recorded as “significantly higher”.

Regarding “BART20-5p: EBV BART miRNA mimic, double stranded RNA; sense SEQ NO: 73, antisense SEQ NO: 74 (sense UAGCAGGCAUGUCUUCAUUCC; antisense GGAAUGAAGACAUGCCUGCUA; chemistry not given here)”, the “Relative Sub G1” value in the series with AGS cell strain [1] is 1.379; with AGS cell strain [1] (listed as 20-5p), “increased”. Further, the “Relative Cell Growth” value in the series on AGS cell strain [2] (n=9) worked out at 1.245. In addition, the “Relative Apoptotic cell” value with AGS cell strain [3] is 1.075.

As for “BART10-3p: EBV BART miRNA mimic, double stranded RNA; sense SEQ NO: 59, antisense SEQ NO: 60 (sense UACAUAACCAUGGAGUUGGCUGU; antisense ACAGCCAACUCCAUGGUUAUGUA; chemistry not given here)”, in the series with AGS cell strain [1], the “Relative Sub G1” value amounted to 0.8394. In addition, the “Relative Cell Growth” value in the series with AGS cell strain [2] (n=9) came to 1.591. Besides, the “Relative Apoptotic cell” value in the series with AGS cell strain [3] worked out at 0.8971.

“BART17-3p: EBV BART miRNA mimic, double stranded RNA; sense SEQ NO: 27, antisense SEQ NO: 28 (sense UGUAUGCCUGGUGUCCCCUUAGU; antisense ACUAAGGGGACACCAGGCAUACA; chemistry not given here)”: the “Relative Sub G1” value is 1.067 with AGS cell strain [1] and “increased” in the series on AGS cell strain [1] (listed as 17-3p). Further, the “Relative Cell Growth” value with AGS cell strain [2] (n=9) is given as 0.7865; in the series on AGS cell strain [2] (n=9, listed as miR-BART17-3p), “inhibited cell growth”. The “Relative Apoptotic cell” value in the series with AGS cell strain [3] is 1.088; in the series with AGS cell strain [3] (listed as 17-3p), “significantly higher”. In addition, the “effect on cell growth and apoptosis” value in the series with AGS cell strain [3] was “inhibit cell growth and promote apoptosis”.

On to “BART21-5p: EBV BART miRNA mimic, double stranded RNA; sense SEQ NO: 33, antisense SEQ NO: 34 (sense UCACUAGUGAAGGCAACUAAC; antisense GUUAGUUGCCUUCACUAGUGA; chemistry not given here)”, for which the “Relative Sub G1” value with AGS cell strain [1] came out at 1.087. The “Relative Cell Growth” value in the series with AGS cell strain [2] (n=9) amounted to 1.304. In addition, the “Relative Apoptotic cell” value in the series on AGS cell strain [3] is listed as 0.9207.

Take “BART10-5p: EBV BART miRNA mimic, double stranded RNA; sense SEQ NO: 57, antisense SEQ NO: 58 (sense GCCACCUCUUUGGUUCUGUACA; antisense UGUACAGAACCAAAGAGGUGGC; chemistry not given here)”: the “Relative Sub G1” value with AGS cell strain [1] is recorded as 0.833. Besides, the “Relative Cell Growth” value with AGS cell strain [2] (n=9) is given as 1.646. In the series with AGS cell strain [3], the “Relative Apoptotic cell” value was found to be 0.8373.

“BART19-3p: EBV BART miRNA mimic, double stranded RNA; sense SEQ NO: 71, antisense SEQ NO: 72 (sense UUUUGUUUGCUUGGGAAUGCU; antisense AGCAUUCCCAAGCAAACAAAA; chemistry not given here)”: the entries for the “Relative Sub G1” value in the series on AGS cell strain [1] and in the series on AGS cell strain [1] (listed as 19-3p) were 1.244 and “increased”, respectively. Moreover, in the series with AGS cell strain [2] (n=9), the “Relative Cell Growth” value came out at 1.237. For the same substance, the “Relative Apoptotic cell” value with AGS cell strain [3] was found to be 0.9742.

As for “BART17-5p: EBV BART miRNA mimic, double stranded RNA; sense SEQ NO: 25, antisense SEQ NO: 26 (sense UAAGAGGACGCAGGCAUACAAG; antisense CUUGUAUGCCUGCGUCCUCUUA; chemistry not given here)”, the “Relative Sub G1” value with AGS cell strain [1] is reported as 1.099. For the same substance, the “Relative Cell Growth” value with AGS cell strain [2] (n=9) came to 0.9551. For the same substance, the “Relative Apoptotic cell” value with AGS cell strain [3] amounted to 1.004.

As to “BART11-5p: EBV BART miRNA mimic, double stranded RNA; sense SEQ NO: 61, antisense SEQ NO: 62 (sense UCAGACAGUUUGGUGCGCUAGUUG; antisense CAACUAGCGCACCAAACUGUCUGA; chemistry not given here)”, the “Relative Sub G1” value in the series with AGS cell strain [1] was 1.081. In the series on AGS cell strain [2] (n=9), the “Relative Cell Growth” value was 1.08. Further, the “Relative Apoptotic cell” value with AGS cell strain [3] was 1.006.

As for “BART6-5p: EBV BART miRNA mimic, double stranded RNA; sense SEQ NO: 29, antisense SEQ NO: 30 (sense UAAGGUUGGUCCAAUCCAUAGG; antisense CCUAUGGAUUGGACCAACCUUA; chemistry not given here)”, the “Relative Sub G1” value in the series on AGS cell strain [1] was 1.023. Besides, the “Relative Cell Growth” value in the series on AGS cell strain [2] (n=9) was determined as 0.881. In addition, the “Relative Apoptotic cell” value in the series with AGS cell strain [3] is 1.117.

Regarding “BART3-5p: EBV BART miRNA mimic, double stranded RNA; sense SEQ NO: 1, antisense SEQ NO: 2 (sense ACCUAGUGUUAGUGUUGUGCU; antisense AGCACAACACUAACACUAGGU; chemistry not given here)”, in the series on AGS cell strain [1], the “Relative Sub G1” value was determined as 0.8224. The “Relative Cell Growth” value in the series on AGS cell strain [2] (n=9) amounted to 1.272. Besides, in the series on AGS cell strain [3], the “Relative Apoptotic cell” value was determined as 1.016.

The values above are taken from patent US9243247B2, “Composition for promoting apoptosis or inhibiting cell growth, comprising epstein-barr virus microrna” (Catholic University Industry Academic Cooperation Foundation, priority 2011, dated 2016).
